Source: patent US20090143426A1, “Synthesis of 1,3,6-trisubstituted-2-carboxyquinol-4-ones as selective ET A antagonists and their use as medicaments” (priority 2007, published 2009)
Positions of bridges follow the written chain, without caps; N, C: chain ends. Non-standard residues stand in square brackets, D forms with d. Residues, ends and D or L forms follow the SMILES beside them. No end group written: not given here.

Tested on: LPS-stimulated pregnant mice
Experiment: not given
Details: Koscica et al. 2004, Wang et al. 2008; cited from earlier work

| Molecule | incidence of premature delivery |
| --- | --- |
| CC(C)C[C@@H]1NC(=O)[C@@H](C(C)C)NC(=O)[C@@H]2CCCN2C(=O)[C@@H](CC(=O)O)NC(=O)[C@@H](Cc2c[nH]c3ccccc23)NC1=O [BQ-123] (cyclo(L[dW][dD]P[dV])) | decreased incidence of premature delivery |
| CC(C)C[C@H](NP(=O)(O)O[C@@H]1O[C@@H](C)[C@H](O)[C@@H](O)[C@H]1O)C(=O)N[C@@H](Cc1c[nH]c2ccccc12)C(=O)O [phosphoramidon] | decreases the incidence of premature delivery |

Tested on: not given
Experiment: not given
Details: not given

| Molecule | melting point [°C] |
| --- | --- |
| CCOC(=O)c1cccc(Cc2c(C(=O)OCC)n(Cc3cc4c(cc3CC)OCO4)c3ccc(O)cc3c2=O)c1 [Product 1a, Ethyl 3-(3-(ethoxycarbonyl)benzyl)-1-((6-ethylbenzo[d][1,3]dioxol-5-yl)methyl)-6-hydroxy-4-oxo-1,4-dihydroquinoline-2-carboxylate] | 232 to 234 |
| CCOC(=O)c1cccc(Cc2c(C(=O)OCC)n(Cc3cc4c(cc3CC)OCO4)c3ccc(OCC)cc3c2=O)c1 [Product 1b, Ethyl 6-ethoxy-3-(3-(ethoxycarbonyl)benzyl)-1-((6-ethylbenzo[d][1,3]dioxol-5-yl)methyl)-4-oxo-1,4-dihydroquinoline-2-carboxylate] | 124 to 126 |
| CCCOc1ccc2c(c1)c(=O)c(Cc1cccc(C(=O)OCC)c1)c(C(=O)OCC)n2Cc1cc2c(cc1CC)OCO2 [Product 1c, Ethyl 3-(3-(ethoxycarbonyl)benzyl)-1-((6-ethylbenzo[d][1,3]dioxol-5-yl)methyl)-4-oxo-6-propoxy-1,4-dihydroquinoline-2-carboxylate] | 134 to 135 |
| CCOC(=O)c1cccc(Cc2c(C(=O)OCC)n(Cc3cc4c(cc3CC)OCO4)c3ccc(OC(C)C)cc3c2=O)c1 [Product 1d, Ethyl 3-(3-(ethoxycarbonyl)benzyl)-1-((6-ethylbenzo[d][1,3]dioxol-5-yl)methyl)-6-isopropoxy-4-oxo-1,4-dihydroquinoline-2-carboxylate] | 124 to 126 |
| C=CCOc1ccc2c(c1)c(=O)c(Cc1cccc(C(=O)OCC)c1)c(C(=O)OCC)n2Cc1cc2c(cc1CC)OCO2 [Product 1e, Ethyl 6-(allyloxy)-3-(3-(ethoxycarbonyl)benzyl)-1-((6-ethylbenzo[d][1,3]dioxol-5-yl)methyl)-4-oxo-1,4-dihydroquinoline-2-carboxylate] | 128 to 131 |
| CCCCOc1ccc2c(c1)c(=O)c(Cc1cccc(C(=O)OCC)c1)c(C(=O)OCC)n2Cc1cc2c(cc1CC)OCO2 [Product 1g, Ethyl 6-butoxy-3-(3-(ethoxycarbonyl)benzyl)-1-((6-ethylbenzo[d][1,3]dioxol-5-yl)methyl)-4-oxo-1,4-dihydroquinoline-2-carboxylate] | 147 to 150 |
| CCOC(=O)c1cccc(Cc2c(C(=O)OCC)n(Cc3cc4c(cc3CC)OCO4)c3ccc(OCC(C)C)cc3c2=O)c1 [Product 1h, Ethyl 3-(3-(ethoxycarbonyl)benzyl)-1-((6-ethylbenzo[d][1,3]dioxol-5-yl)methyl)-6-isobutoxy-4-oxo-1,4-dihydroquinoline-2-carboxylate] | 129 to 132 |
| CCOC(=O)c1cccc(Cc2c(C(=O)OCC)n(Cc3cc4c(cc3CC)OCO4)c3ccc(OC(C)CC)cc3c2=O)c1 (stereo not drawn) [Product 1i, Ethyl 6-sec-butoxy-3-(3-(ethoxycarbonyl)benzyl)-1-((6-ethylbenzo[d][1,3]dioxol-5-yl)methyl)-4-oxo-1,4-dihydroquinoline-2-carboxylate] | 129 to 132 |
| CCCCCOc1ccc2c(c1)c(=O)c(Cc1cccc(C(=O)OCC)c1)c(C(=O)OCC)n2Cc1cc2c(cc1CC)OCO2 [Product 1k, Ethyl 3-(3-(ethoxycarbonyl)benzyl)-1-((6-ethylbenzo[d][1,3]dioxol-5-yl)methyl)-4-oxo-6-(pentyloxy)-1,4-dihydroquinoline-2-carboxylate] | 98 to 99 |
| CCOC(=O)c1cccc(Cc2c(C(=O)OCC)n(Cc3cc4c(cc3CC)OCO4)c3ccc(OCCCO)cc3c2=O)c1 [Product 1l, Ethyl 3-(3-(ethoxycarbonyl)benzyl)-1-((6-ethylbenzo[d][1,3]dioxol-5-yl)methyl)-6-(3-hydroxypropoxy)-4-oxo-1,4-dihydroquinoline-2-carboxylate] | 129 to 132 |
| CCOc1ccc2c(c1)c(=O)c(Cc1cccc(C(=O)O)c1)c(C(=O)O)n2Cc1cc2c(cc1CC)OCO2 [Product 1o, 3-(3-carboxybenzyl)-6-ethoxy-1-((6-ethylbenzo[d][1,3]dioxol-5-yl)methyl)-4-oxo-1,4-dihydroquinoline-2-carboxylic acid] | 213 to 215 |
| CCCOc1ccc2c(c1)c(=O)c(Cc1cccc(C(=O)O)c1)c(C(=O)O)n2Cc1cc2c(cc1CC)OCO2 [Product 1p, 3-(3-carboxybenzyl)-1-((6-ethylbenzo[d][1,3]dioxol-5-yl)methyl)-4-oxo-6-propoxy-1,4-dihydroquinoline-2-carboxylic acid] | 162 to 163 |
| CCc1cc2c(cc1Cn1c(C(=O)O)c(Cc3cccc(C(=O)O)c3)c(=O)c3cc(OC(C)C)ccc31)OCO2 [Product 1q, 3-(3-carboxybenzyl)-1-((6-ethylbenzo[d][1,3]dioxol-5-yl)methyl)-6-isopropoxy-4-oxo-1,4-dihydroquinoline-2-carboxylic acid] | 199 to 200 |
| C=CCOc1ccc2c(c1)c(=O)c(Cc1cccc(C(=O)O)c1)c(C(=O)O)n2Cc1cc2c(cc1CC)OCO2 [Product 1r, 6-(allyloxy)-3-(3-carboxybenzyl)-1-((6-ethylbenzo[d][1,3]dioxol-5-yl)methyl)-4-oxo-1,4-dihydroquinoline-2-carboxylic acid] | 165 to 166 |
| CCCCOc1ccc2c(c1)c(=O)c(Cc1cccc(C(=O)O)c1)c(C(=O)O)n2Cc1cc2c(cc1CC)OCO2 [Product 1t, 6-butoxy-3-(3-carboxybenzyl)-1-((6-ethylbenzo[d][1,3]dioxol-5-yl)methyl)-4-oxo-1,4-dihydroquinoline-2-carboxylic acid] | 161 to 162 |
| CCc1cc2c(cc1Cn1c(C(=O)O)c(Cc3cccc(C(=O)O)c3)c(=O)c3cc(OCC(C)C)ccc31)OCO2 [Product 1u, 3-(3-carboxybenzyl)-1-((6-ethylbenzo[d][1,3]dioxol-5-yl)methyl)-6-isobutoxy-4-oxo-1,4-dihydroquinolin-2-carboxylic] | 185 to 186 |
| CCc1cc2c(cc1Cn1c(C(=O)O)c(Cc3cccc(C(=O)O)c3)c(=O)c3cc(OCC4CC4)ccc31)OCO2 [Product 1w, 3-(3-carboxybenzyl)-6-(cyclopropylmethoxy)-1-((6-ethylbenzo[d][1,3]dioxol-5-yl)methyl)-4-oxo-1,4-dihydroquinoline-2-carboxylic acid] | 229 to 231 |
| CCCCCOc1ccc2c(c1)c(=O)c(Cc1cccc(C(=O)O)c1)c(C(=O)O)n2Cc1cc2c(cc1CC)OCO2 [Product 1x, 3-(3-carboxybenzyl)-1-((6-ethylbenzo[d][1,3]dioxol-5-yl)methyl)-4-oxo-6-(pentyloxy)-1,4-dihydroquinoline-2-carboxylic acid] | 152 to 155 |
| CCc1cc2c(cc1Cn1c(C(=O)O)c(Cc3cccc(C(=O)O)c3)c(=O)c3cc(OCCCO)ccc31)OCO2 [Product 1y, 3-(3-carboxybenzyl)-1-((6-ethylbenzo[d][1,3]dioxol-5-yl)methyl)-6-(3-hydroxypropoxy)-4-oxo-1,4-dihydroquinoline-2-carboxylic acid] | 192 to 194 |

Tested on: BALF neutrophils in female Syrian hamsters
Experiment: Animal model of smoking related acute lung injury (ET-1 plus cigarette smoke, BALF neutrophils)
Type: in vivo, hamster
Details: ET-1 and room air
Description: Animal models of smoking related acute lung injury. The Animal Care and Utilization Committee of the College of Pharmacy and Allied Health Professions, St. John's University approved all experimental protocols, and the research was conducted according to the requirements of NIH Guide for the Care and Use of Laboratory Animals (revised 1996).
Female Syrian hamsters, weighing approximately 100 g each, were divided into two groups as follows: Group 1 was treated IP with: 1) 500 μg of HJP272 in 0.5 mL Na2CO3 and 2) 5 μg ET-1 in 0.25 mL PBS 60 minutes later, followed immediately by exposure to cigarette smoke for two hours. This regimen was continued for three days.
Group 2 was treated IP with: 1) 0.5 mL Na2CO3 and 2) […] ET-1 in 0.25 mL PBS 60 minutes later, followed immediately by exposure to cigarette smoke for three consecutive days as per Group 1. The animals were placed in a 70×48×38 cm chamber and passively exposed to cigarette smoke produced by a TE-10 smoking machine (Teague Enterprises, Davis, Calif.) that simultaneously burned two filtered research-grade cigarettes (type 2R4F, University of Kentucky). Smoke from both the filtered and burning ends of the cigarette was collected, and then mixed together with air in a separate chamber, thus simulating second-hand smoke exposure. Each cigarette was puffed once per minute for two seconds at a flow rate of 1.05 LPM, yielding 35 mL of smoke. This cycle was repeated nine times before ejecting the cigarette and loading a new one. Proper flow rate was maintained by a vacuum pump that established negative pressure at the exhaust port. Total smoke particulates averaged 87 mg per cubic meter.
All animals were sacrificed 24 hours after completing the smoke exposure regimen to maximize the neutrophil population in the lung, and the percentage of BALF neutrophils was measured (van der Vaart et al. 2004)

| Molecule | percentage of BALF neutrophils [%] |
| --- | --- |
| Endothelin-1 (CSCSSLMDKECVYFCHLDIIW; disulfide 1-15, 3-11; ends not checked; UniProt P05305 53-73, looked up) [ET-1, reference compound] | 1 |

Same assay, conditions: ET-1 prior to cigarette smoke; smoke-only control 18%

| Molecule | percentage of BALF neutrophils [%] |
| --- | --- |
| Endothelin-1 (CSCSSLMDKECVYFCHLDIIW; disulfide 1-15, 3-11; ends not checked; UniProt P05305 53-73, looked up) [ET-1, reference compound] | 46 |

Tested on: LPS-induced influx of neutrophils into the lung
Experiment: not given
Details: Bhavsar et al. 2008a, 2008b; cited from earlier work

| Molecule | LPS-induced influx of neutrophils into the lung |
| --- | --- |
| CC(C)C[C@H](NP(=O)(O)O[C@@H]1O[C@@H](C)[C@H](O)[C@@H](O)[C@H]1O)C(=O)N[C@@H](Cc1c[nH]c2ccccc12)C(=O)O [phosphoramidon] | markedly reduces |
